In assay [1] the target is Tubulin alpha chain (Sus scrofa, UniProt P02550). Description: Compound was evaluated for inhibition of tubulin polymerization. The assay is classed as functional.
Assay [2] concerns the target Tubulin alpha chain (Sus scrofa) (UniProt P02550). As to the kind of experiment: Inhibition of [3H]colchicine binding to tubulin at a concentration of 5.0 uM.
Assay [3] has the same target. As to the kind of experiment: Inhibition of [3H]colchicine binding to tubulin at a concentration of 50 uM.
For assay [4], the system named is MCF7. As to the kind of experiment: Cytotoxicity was determined by inhibition of cell growth of MCF-7 human breast carcinoma cell. It counts as functional, cell-based.
In assay [5] the test system is CA46. As to the kind of experiment: Cytotoxicity was determined by inhibition against the Burkitt lymphoma CA46 cell line. The assay is classed as functional, cell-based. The note with it: Homo sapiens.

pIC50: −log10 of the molar value.

Sequence of Tubulin alpha chain (Sus scrofa) (P02550 whole entry, looked up): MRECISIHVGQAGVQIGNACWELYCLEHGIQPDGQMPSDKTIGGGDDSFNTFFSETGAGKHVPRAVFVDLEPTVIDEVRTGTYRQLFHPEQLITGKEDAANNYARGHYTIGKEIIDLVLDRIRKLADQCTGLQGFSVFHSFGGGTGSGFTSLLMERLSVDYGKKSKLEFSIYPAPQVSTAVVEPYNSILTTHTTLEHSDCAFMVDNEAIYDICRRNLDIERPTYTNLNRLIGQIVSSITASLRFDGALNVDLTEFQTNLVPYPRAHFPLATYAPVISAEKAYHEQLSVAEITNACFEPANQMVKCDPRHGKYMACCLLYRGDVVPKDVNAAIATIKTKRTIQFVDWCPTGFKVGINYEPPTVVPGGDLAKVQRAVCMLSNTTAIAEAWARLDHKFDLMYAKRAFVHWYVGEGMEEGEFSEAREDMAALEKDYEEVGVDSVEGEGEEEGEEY
Sequence of Tubulin alpha chain (P02550 whole entry, looked up): as above

As usually defined, the pIC50 is the negative decadic logarithm of the IC50, by convention in mol/L. Higher therefore signals a small IC50. In general, inhibition refers to the drop in the measured response relative to a control, in per cent. A lower inhibition goes with a weak effect. On to `COc1ccc(C2=C(c3cc(OC)c(OC)c(OC)c3)CCS2)cc1O`, for which the pIC50 in assay [1] was 5.44; in assay [4] it was 6.41. The inhibition in assay [2] is 64%; in assay [3], 88%.

`COc1ccc(C(=O)c2ccsc2-c2cc(OC)c(OC)c(OC)c2)cc1O`: the pIC50 in assay [1] was less than 4.40.

With `COc1ccc(-c2sccc2C(=O)c2cc(OC)c(OC)c(OC)c2)cc1O`, the pIC50 was 6.00 in assay [1] and 6.52 in assay [4]. This compound also had an inhibition in assay [2] of 67%.

For the compound `COc1ccc2c(C(O)c3ccc(OC)c(O)c3)c(-c3cc(OC)c(OC)c(OC)c3)sc2c1` (configuration not stated), the pIC50 in assay [1] was 5.21; in assay [5], less than 6.00. Also, the inhibition amounted to 5% in assay [2] and 73% in assay [3].

In assay [2], `COc1ccc2c(C(=O)c3cc(OC)c(OC)c(OC)c3)c(-c3ccc(OC)c(O)c3)sc2c1` came in with an inhibition of 21%.

Take `COc1ccc(C(O)c2ccsc2-c2cc(OC)c(OC)c(OC)c2)cc1O` (configuration not stated): the pIC50 is 5.06 in assay [1] and 6.30 in assay [4]. The inhibition in assay [2] amounted to 26%; in assay [3], 74%.

The record behind these values is ChEMBL document CHEMBL1133936, “The synthesis and tubulin binding activity of thiophene-based analogues of combretastatin A-4” (Bioorg Med Chem Lett, 2001).
